Measurements published in patent publication US20240299448A1, “METHODS FOR PREVENTING AND TREATING CHRONIC PAIN” (priority 2023, published 2024).

Tests used:
Format in all cases: in vivo, mouse
[1] = tested on: CD-1 mice with plantar incision in the hind paw; test: Plantar incision postoperative pain, von Frey mechanical sensitivity
Experimental: CD-1 mice were housed in conventional shoebox cages with 3-4 mice per cage, in temperature-controlled environment (20±1° C.), on a 12:12 h light/dark cycle, with ad libitum access to filtered water and chow (Envigo Teklad 2920x, irradiated). All mice underwent plantar incision in the right hind paw. Mice were anesthetized with 5% isoflurane at 2 L/min into a sealed induction chamber then maintained with 2.5% isoflurane at 500 mL/min through a nose cone. A 5-mm longitudinal incision was created, the flexor digitorum brevis muscle was elevated, and then a longitudinal incision was made through it. Two skin sutures closed the wound, and Polysporin antibiotic was applied. The mice were subcutaneously injected with either dexamethasone (DEXA; 0.5 mg/kg/day) or saline (PBS) once per day from the day before surgery to day 6 after surgery. Also, mice were administered 100 ug/kg/day (p.o.) of beraprost sodium, a PTGIR agonist, or saline from day 5 to 8 after plantar incision surgery. Mechanical sensitivity tests were performed using von Frey filaments (using the up-down method of Dixon) before and after the surgery on days 1, 7, 9, 14, 21 and 35. Mice were individually acclimated for at least 1 hour in transparent Plexiglas enclosures (5 cm×8.5 cm by 6 cm) before withdrawal thresholds were measured.

[2] = tested on: mice with hind paw injection of complete Freund's adjuvant (CFA); test: CFA inflammatory pain, von Frey mechanical paw-withdrawal threshold; conditions: for allodynia during the administration period after CFA / duration of the overall allodynia episode produced by CFA: drug daily Day 0 to Day 6, diclofenac 25, morphine 5, gabapentin 100 mg/kg/day i.p., lidocaine 2% 20 μl s.c. hind paw, vs saline; for development of allodynia after CFA in dexamethasone-treated mice: hind paw injection on Day 3 and Day 5, ipsilateral to CFA, with dexamethasone; for duration of CFA allodynia in the absence of dexamethasone / CFA-induced mechanical allodynia in the absence of dexamethasone: hind paw injection on day 3 and day 5, no dexamethasone; for CFA-induced mechanical allodynia in the absence of dexamethasone: day 6 or any other time point, vs vehicle
Experimental: Mice: CD-1 male and female mice aged 6-12 weeks (ICR:Crl, Charles River, St. Constant, QC) were used in these experiments. All mice were housed in standard shoebox cages with 2-4 (same-sex) per cage in a light (14:10 h, lights on at 07:00 h) and temperature-controlled (20±1° C.) environment with ad libidum access to food (Harlan Teklad 8604) and tap water. Mice were acclimated to the vivarium for 7 days post-arrival and before testing. Each mouse was used in a single drug experiment. Equal numbers of male and female mice were included in each cohort.
Drugs: Dexamethasone (PromoCell, Heidelberg, Germany) was administered via daily subcutaneous injections at a dosage of 0.5 mg/kg/day. Diclofenac, morphine, and gabapentin were administered via intraperitoneal (i.p.) injection at a dose of 25 mg/kg/day, 5 mg/kg/day, and 100 mg/kg/day, respectively. Lidocaine was administered via subcutaneous (s.c.) injection of 20 μl of 2% lidocaine into the plantar hind paw. All drugs other than dexamethasone were purchased from Sigma-Aldrich (St. Louis, MO, USA). Anti-Ly6G (BioX Cell [InVivoPlus anti-mouse Ly6G/Ly6C (Gr-1)]) and its isotype control (BioX Cell [InVivoPlus rat IgG2b isotype control, anti-keyhole limpet hemocyanin]) were injected at a dose of 125 μg/day. S100A8 and S100A9 were injected (10 μl) into the plantar surface of the inflamed (see below) hind paw at a dose of 1 μg/day.
Neutrophils: Neutrophils were isolated using the EasySep Mouse Neutrophil Enrichment kit (Stem Cell Technologies, Vancouver, Canada) as per manufacturer's instructions. Briefly, blood was collected by cardiac puncture in a 21-gauge needle coated with 10% EDTA and pooled from 2-3 mice in PBS/2 mM EDTA. Red blood cells were lysed after incubation in 0.83% NH4Cl for 10 min at 4° C., with the reaction stopped by adding PBS+10% FBS. Cells were centrifuged at 300 g for 5 min and resuspended in PBS+10% FBS. Cells were then incubated with rat serum and enrichment cocktail for 15 min at 4° C. and centrifuged at 300 g for 10 min. Cells were then resuspended in biotin selection cocktail for 15 min at 4° C., followed by magnetic beads for an additional 10 min, and placed into the separation magnet for 3 min. Non adherent cells were removed, and adherent cells washed off of the walls of the tube and resuspended in PBS for injection. Cells (5×10^6, in 10 μl) were injected into the plantar surface of the inflamed hind paw (see below) of mice within 30 min of isolation.
In most experiments, complete Freud's adjuvant (50% CFA, 20 μl volume) was injected into the plantar surface of the mouse's left hind paw as a model of inflammatory pain.
Before and after all injuries, mechanical paw-withdrawal threshold was measured with von Frey filaments using the up-down staircase method of Dixon (Chaplan et al., 1994), as previously described (Mogil et al., 2006). In every experiment, a baseline threshold determination was made on Day 1. Drugs or cells were administered daily from Day 0 to Day 6 (dexamethasone, diclofenac, gabapentin, lidocaine), on Day 3 and Day 5 (S100A8, S100A9, and neutrophils), or every other day from Day 0 to Day 20 (anti-Ly6G). von Frey testing on Day 6 occurred 1 hour after the drug injection on that day. Testing continued until both vehicle and drug groups had returned to their baseline statistically (with the exception of CFA+diclofenac), even though not all individual mice had necessarily recovered. Thus, in an attempt to minimize the duration that mice remained in pain, the length of experiments were different depending on the assay used and the purpose of the experiment, from 40 days post drug to 120 days post-drug.
Data analysis: Time course data of von Frey thresholds are shown graphically. To quantify the acute effects of drugs on mechanical thresholds during drug exposure (on Day 4-6 after CCI or CFA), the percentage of maximum possible allodynia was quantified as: % allodynia=[(baseline threshold−post-drug threshold)/baseline threshold]×100. […]

[3] = tested on: mice with chronic constriction injury (CCI) of the sciatic nerve; test: Chronic constriction injury (CCI) neuropathic pain, von Frey mechanical paw-withdrawal threshold; conditions: drug daily Day 0 to Day 6, vs saline
Experimental: Mice: CD-1 male and female mice aged 6-12 weeks (ICR:Crl, Charles River, St. Constant, QC) were used in these experiments. All mice were housed in standard shoebox cages with 2-4 (same-sex) per cage in a light (14:10 h, lights on at 07:00 h) and temperature-controlled (20±1° C.) environment with ad libidum access to food (Harlan Teklad 8604) and tap water. Mice were acclimated to the vivarium for 7 days post-arrival and before testing. Each mouse was used in a single drug experiment. Equal numbers of male and female mice were included in each cohort. Drugs: Dexamethasone (PromoCell, Heidelberg, Germany) was administered via daily subcutaneous injections at a dosage of 0.5 mg/kg/day. […] Before and after all injuries, mechanical paw-withdrawal threshold was measured with von Frey filaments using the up-down staircase method of Dixon (Chaplan et al., 1994), as previously described (Mogil et al., 2006). […] To quantify the acute effects of drugs on mechanical thresholds during drug exposure (on Day 4-6 after CCI or CFA), the percentage of maximum possible allodynia was quantified as: % allodynia=[(baseline threshold−post-drug threshold)/baseline threshold]×100. […] To quantify the duration of the entire CCI- or CFA-induced allodynic episode, the day-by-day mechanical thresholds of each subject was considered. […]

[4] = DEXA 0.5 mg/kg/day s.c. plus beraprost sodium 100 ug/kg/day p.o. day 5 to 8

CC#CCC(C)[C@H](O)/C=C/[C@@H]1[C@H]2c3cccc(CCCC(=O)O)c3O[C@H]2C[C@H]1O (mixture of isomers) [beraprost, beraprost sodium]
long-lasting DEXA-induced hyperalgesia after plantar incision [1, 4]: prevented long-lasting DEXA-induced hyperalgesia | time to recovery after plantar incision [1, 4]: recovered after one week | duration of hypersensitivity after plantar incision ([1]; DEXA 0.5 mg/kg/day s.c., no beraprost): up to one month

NCC1(CC(=O)O)CCCCC1 [gabapentin]
allodynia during the administration period after CFA [2]: reduced allodynia | duration of the overall allodynia episode produced by CFA [2]: without affecting the overall duration

O=C(O)Cc1ccccc1Nc1c(Cl)cccc1Cl [diclofenac, Diclofenac]
allodynia during the administration period after CFA [2]: reduced allodynia | duration of the overall allodynia episode produced by CFA [2]: significantly prolonged the duration | recovery to baseline / duration of CCI-induced allodynia [3]: prolong the duration

C[C@@H]1C[C@H]2[C@@H]3CCC4=CC(=O)C=C[C@]4(C)[C@@]3(F)[C@@H](O)C[C@]2(C)[C@@]1(O)C(=O)CO [dexamethasone, Dexamethasone]
hind paw allodynia at the end of the treatment period after CCI ([3]; day 6): no effect

CCN(CC)CC(=O)Nc1c(C)cccc1C [lidocaine, Lidocaine]
allodynia during the administration period after CFA [2]: reduced allodynia | duration of the overall allodynia episode produced by CFA [2]: without affecting the overall duration

CN1CC[C@]23c4c5ccc(O)c4O[C@H]2[C@@H](O)C=C[C@H]3[C@H]1C5 [morphine]
allodynia during the administration period after CFA [2]: reduced allodynia | duration of the overall allodynia episode produced by CFA [2]: without affecting the overall duration

B1: S100A9: neutrophil-released alarmin protein, injected into the hind paw at 1 μg/day (protein, UniProt P31725 2-113, looked up)
Protein S100-A9: ANKAPSQMERSITTIIDTFHQYSRKEGHPDTLSKKEFRQMVEAQLATFMKKEKRNEALINDIMEDLDTNQDNQLSFEECMMLMAKLIFACHEKLHENNPRGHGHSHGKGCGK
development of allodynia after CFA in dexamethasone-treated mice [2]: prevented the development of allodynia entirely | duration of CFA allodynia in the absence of dexamethasone [2]: neither neutrophils nor S100A8/A9 significantly affected the duration | CFA-induced mechanical allodynia in the absence of dexamethasone [2]: No effect

B2: S100A8: neutrophil-released alarmin protein, injected into the hind paw at 1 μg/day (protein, UniProt P27005 2-89, looked up)
Protein S100-A8: PSELEKALSNLIDVYHNYSNIQGNHHALYKNDFKKMVTTECPQFVQNINIENLFRELDINSDNAINFEEFLAMVIKVGVASHKDSHKE
development of allodynia after CFA in dexamethasone-treated mice [2]: prevented the development of allodynia entirely | duration of CFA allodynia in the absence of dexamethasone [2]: neither neutrophils nor S100A8/A9 significantly affected the duration | CFA-induced mechanical allodynia in the absence of dexamethasone [2]: No effect
